# Test results taken from patent US7189751B2, “Oxa(thia)zolidine compounds, process for preparation thereof and anti-inflammatory agents” (Nippon Soda Co., Ltd., priority 2001, dated 2007).
# Legend:
# [1] = tested on: Mouse Delayed Contact Dermatitis Induced by Picryl Chloride; experiment: Mouse delayed contact dermatitis induced by picryl chloride; type: in vivo
# Description: Pharmacological Test Example 3 Mouse Delayed Contact Dermatitis Induced by Picryl Chloride
# This pharmacological test was carried out referring to the method of Asherson, G. L. & Ptak, W. (Immunology, 15: 405–416 (1968).) and the method of Jun Hiroi (Folia Pharmacology of Japan, 86: 233–239 (1985).). More specifically, hairs on the abdomen of an ICR-strain male mouse were removed using an electric clipper and an electric shaver. Then, 0.1 mL of 7% ether solution of picryl chloride (Tokyo Kasei Kogyo Co., Ltd., C 0307) was applied onto the abdomen for sensitization. On the sixth day after the sensitization, 20 μL/ear of 1% olive oil solution of picryl chloride was topically applied to the anterior and posterior surfaces of both ears of the mouse to induce contact dermatitis (first induction). Before and 24 hours after the induction, the thicknesses of the particular parts on the both ears were measured three times, respectively, using a digimatic micrometer (Mitsutoyo Co., Ltd.) to work out the average values. Ear edema of the both ears was respectively determined by subtracting the average thickness of the each ear before the induction from that on 24 hours after the induction, so that a grouping was carried out to separate the appropriate individuals. On the fourth day after the first induction, the hairs on the abdomen were removed again, and 0.1 mL of 7% ethanol solution of picryl chloride was applied thereto for additional sensitization. The contact dermatitis for evaluating activity was induced by re-applying 20 μL/ear of 1% olive oil solution of picryl chloride to the anterior and posterior surfaces of both ears (second induction) on the seventh day after the additional sensitization (on the […] after the first sensitization). The activity of each compound of the present invention was evaluated as the inhibition on the contact dermatitis as compared with that of the vehicle applied control. That is, the thicknesses of the particular portions of the both ears were measured respectively three times with a digimatic micrometer to work out the mean values before, 24 hours and 48 hours after the second induction. Ear swelling was determined by subtracting the ear thickness before the second induction from that on 24 hours and 48 hours after the second induction, respectively. Topical application activity was evaluated by applying 25 μL of the acetone solution of the compound of the present invention similarly to the anterior and posterior surfaces of the right ear one hour before and 16 hours after the second induction. As the positive control, 0.02 mg/20 μL of acetone solution of Dexamethasone (hereinafter referred to as DEX, Wako Pure Chemical Industries Ltd., 047-18863) was applied similarly as for the compound of the present invention. With respect to the inhibitory activity in topical application tests, the topical activity was determined by the inhibition of the applied right ear edema, and the translocation and distribution property was determined by the activity onto the swelling of non-treated left ear. Oral administration activity was evaluated by administrating 0.5% methyl cellulose suspension of the compound of the present invention forcibly and perorally to the mouse an hour before and 16 hours after the second induction. As the positive control, 20 mg/kg of Prednisolone (Sigma Chemical Co., P 6004) suspension was administrated similarly as for the compounds of the present invention. […] As the examples, the body weight changes in the mice for 48 hours after the second induction when they were administrated with the compounds shown in Table 5 are shown in Table 6.
# [2] = tested on: Mouse Delayed Contact Dermatitis Induced by Picryl Chloride; experiment: as above; type: in vivo; remark: listed apart in the source
structure (smiles),measurement,setting,value
"C[C@@H]1C[C@H]2[C@@H]3CCC4=CC(=O)C=C[C@]4(C)[C@@]3(F)[C@@H](O)C[C@]2(C)[C@@]1(O)C(=O)CO [DEX, Dexamethasone]",Change in body weight 48 hours after induction (Mean ± S.E.),"[1]; 0.02 mg/ear × 2, vehicle control −0.45 ± 0.20",-1.42 ± 0.20 g
same,Change in body weight 48 hours after induction (Mean ± S.E.) (%),"[1]; 0.02 mg/ear × 2, vehicle control −1.29 ± 0.59",−4.30 ± 0.59%
same,intoxicated symptoms,[1]; mice of the picryl chloride dermatitis test,showed intoxicated symptoms
same,body weight 48 hours after the second induction,"[1]; mice of the picryl chloride dermatitis test, 48 hours after the second induction",reduced significantly
same,"Ear swelling after 24 hours, Right (Applied) (Mean ± S.E., mm)","[2]; topical 0.02 mg/25 μL/ear × 2, vehicle control 0.299 ± 0.006",0.057 ± 0.009 mm
same,"Ear swelling after 24 hours, Left (Not applied) (Mean ± S.E., mm)","[2]; topical 0.02 mg/25 μL/ear × 2 on right ear, vehicle control 0.284 ± 0.008",−0.005 ± 0.033 mm
